Legend:
Format in all cases: in vivo
[1] = test system: green foxtail (Setaria viridis, SETVI); assay: Pre-emerge test, greenhouse herbicide activity screening; conditions: for Pre-emerge Herbicidal Activity SETVI: phytotoxicity rating 0-100, 14 days after application; for phytotoxicity rating SETVI: pre-emerge, 14 days after application, scale 0-100
From the text: (§1) A standard greenhouse herbicide activity screening system was used to evaluate the herbicidal efficacy and crop safety of these test compounds. Seven broadleaf weed species including redroot pigweed (Amaranthus retroflexus, AMARE, velvetleaf (Abutilon theophrasti, ABUTH), sicklepod (Cassia obtusifolia, CASOB), ivyleaf morningglory (Ipomoea hederacea, IPOHE), lambsquarters (Chenopodium album, CHEAL), common ragweed (Ambrosia artemisizfolia L., AMBEL), and cocklebur (Xanthium strumarium, XANST) were used as test species. Four grass weed species including green foxtail (Setaria viridis, SETVI), barnyardgrass (Echinochloa crus-galli, ECHCG), johnsongrass (Sorghum halepense, SORHA), and large crabgrass (Digitaria sanguinalis, DIGSA) were also used. In addition, three crop species, field corn (Zea mays L., var. Dekalb 535, CORN), soybean (Glycine max L., var. Pella 86, SOY), and is upland rice (Oryza sp., var. Tebonnet, RICE) were included.
(§2) All plants were grown in 10 cm square plastic pots which were filled with a sandy loam soil mix. For pre-emerge tests, seeds were planted one day prior to application of the test compounds. For post-emerge tests, seeds were planted 8-21 days prior to the test to allow emergence and good foliage development prior to application of the test substances. At the time of the post-emerge application, plants of all species were usually at the 2-3 leaf stage of development.
(§3) All test compounds Were dissolved in acetone and applied to the test units in a volume of 187 l /ha. Test materials were applied at rates ranging from 15 g ai/ha to 1000 g ai/ha using a track sprayer equipped with a TJ8001E even flow flat fan spray nozzle. Plants were arranged on a shelf so that the top of the canopy (post-emerge) or top of the soil surface (pre-emerge) was 40-45 cm below the nozzle. Pressurized air was used to force the test solution through the nozzle as it was mechanically advanced (via electrically driven chain drive) over the top of all test plants/pots. This application simulates a typical commercial field herbicide application.
(§4) In the post-emerge test, a commercial non-ionic surfactant was also included (0.25% v/v) to enhance wetting of the leaf surfaces of target plants. Immediately after application, test units of the pre-emerge applications were watered at the soil surface to incorporate the test materials. Subsequently, these test units were bottom-watered. Post-emerge test units were always bottom-watered.
(§5) At 14 days after application of the test materials, phytotoxicity ratings were recorded. A rating scale of 0-100 was used as previously described in Research Methods in Weed Science, 2nd edition, B. Truelove, Ed., Southern Weed Science Society, Auburn University, Auburn, Ala. 1977. Briefly, “0” corresponds to no damage and “100” corresponds to complete death of all plants in the test unit. This scale was used both to determine efficacy against weed species and damage to crop species. Herbicide activity data for various compounds of this invention, which are shown by compound No. in Tables 1-8, are shown in Tables 11 and 12.

[2] = test system: sicklepod (Cassia obtusifolia, CASOB); assay: as above; conditions: for Pre-emerge Herbicidal Activity CASOB: phytotoxicity rating 0-100, 14 days after application; for phytotoxicity rating CASOB: pre-emerge, 14 days after application, scale 0-100
From the text: as §1, §2, §3, §4, §5

[3] = test system: lambsquarters (Chenopodium album, CHEAL); assay: as above; conditions: for Pre-emerge Herbicidal Activity CHEAL: phytotoxicity rating 0-100, 14 days after application; for phytotoxicity rating CHEAL: pre-emerge, 14 days after application, scale 0-100
From the text: as §1, §2, §3, §4, §5

[4] = test system: ivyleaf morningglory (Ipomoea hederacea, IPOHE); assay: as above; conditions: for Pre-emerge Herbicidal Activity IPOHE: phytotoxicity rating 0-100, 14 days after application; for phytotoxicity rating IPOHE: pre-emerge, 14 days after application, scale 0-100
From the text: as §1, §2, §3, §4, §5

[5] = test system: barnyardgrass (Echinochloa crus-galli, ECHCG); assay: as above; conditions: for Pre-emerge Herbicidal Activity ECHCG: phytotoxicity rating 0-100, 14 days after application; for phytotoxicity rating ECHCG: pre-emerge, 14 days after application, scale 0-100
From the text: as §1, §2, §3, §4, §5

[6] = test system: velvetleaf (Abutilon theophrasti, ABUTH); assay: as above; conditions: for Pre-emerge Herbicidal Activity ABUTH: phytotoxicity rating 0-100, 14 days after application; for phytotoxicity rating ABUTH: pre-emerge, 14 days after application, scale 0-100
From the text: as §1, §2, §3, §4, §5

[7] = test system: large crabgrass (Digitaria sanguinalis, DIGSA); assay: as above; conditions: for Pre-emerge Herbicidal Activity DIGSA: phytotoxicity rating 0-100, 14 days after application; for phytotoxicity rating DIGSA: pre-emerge, 14 days after application, scale 0-100
From the text: as §1, §2, §3, §4, §5

[8] = test system: upland rice (Oryza sp., var. Tebonnet, RICE); assay: Post-emerge test, crop safety; conditions: post-emerge, 14 days after application, rating scale 0-100
Summary of the method: (§6)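 Applied at 15–1000 g ai/ha from acetone in 187 l/ha spray volume. Post-emergence applications included 0.25% v/v non-ionic surfactant and reached plants sown 8–21 days before. Pre-emergence applications were incorporated by surface watering. Efficacy or crop damage was rated on a 0–100 scale after 14 days.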

[9] = test system: field corn (Zea mays L., var. Dekalb 535, CORN); assay: Post-emerge test, crop safety; conditions: post-emerge, 14 days after application, rating scale 0-100
Summary of the method: as §6

[10] = test system: upland rice (Oryza sp., var. Tebonnet, RICE); assay: Pre-emerge test, crop safety; conditions: for Pre-emerge Herbicidal Activity RICE: crop damage rating 0-100, 14 days after application; for phytotoxicity rating RICE (crop damage): pre-emerge, 14 days after application, scale 0-100
Summary of the method: (§7)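 Rating: 0–100 visual injury, 14 DAA. Application: acetone, 187 l/ha, 15–1000 g ai/ha, flat-fan track sprayer with nozzle 40–45 cm above soil or canopy. Post-emerge runs used 0.25% v/v surfactant on 2–3 leaf plants.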

[11] = test system: field corn (Zea mays L., var. Dekalb 535, CORN); assay: Pre-emerge test, crop safety; conditions: for Pre-emerge Herbicidal Activity CORN: crop damage rating 0-100, 14 days after application; for phytotoxicity rating CORN (crop damage): pre-emerge, 14 days after application, scale 0-100
Summary of the method: as §7

[12] = test system: green foxtail (Setaria viridis, SETVI); assay: Post-emerge test, greenhouse herbicide activity screening; conditions: post-emerge, 14 days after application, rating scale 0-100
From the text: as §1, §2, §3, §4, §5

[13] = test system: sicklepod (Cassia obtusifolia, CASOB); assay: as above; conditions: post-emerge, 14 days after application, rating scale 0-100
From the text: as §1, §2, §3, §4, §5

[14] = test system: redroot pigweed (Amaranthus retroflexus, AMARE); assay: as above; conditions: post-emerge, 14 days after application
From the text: as §1, §2, §3, §4, §5

[15] = test system: lambsquarters (Chenopodium album, CHEAL); assay: as above; conditions: post-emerge, 14 days after application, rating scale 0-100
From the text: as §1, §2, §3, §4, §5

[16] = test system: ivyleaf morningglory (Ipomoea hederacea, IPOHE); assay: as above; conditions: post-emerge, 14 days after application, rating scale 0-100
From the text: as §1, §2, §3, §4, §5

[17] = test system: barnyardgrass (Echinochloa crus-galli, ECHCG); assay: as above; conditions: post-emerge, 14 days after application, rating scale 0-100
From the text: as §1, §2, §3, §4, §5

[18] = test system: velvetleaf (Abutilon theophrasti, ABUTH); assay: as above; conditions: post-emerge, 14 days after application, rating scale 0-100
From the text: as §1, §2, §3, §4, §5

[19] = test system: large crabgrass (Digitaria sanguinalis, DIGSA); assay: as above; conditions: post-emerge, 14 days after application, rating scale 0-100
From the text: as §1, §2, §3, §4, §5

[20] = test system: redroot pigweed (Amaranthus retroflexus, AMARE); assay: Pre-emerge test, greenhouse herbicide activity screening; conditions: for Pre-emerge Herbicidal Activity AMARE: phytotoxicity rating 0-100, 14 days after application; for phytotoxicity rating AMARE: pre-emerge, 14 days after application, scale 0-100
Summary of the method: as §7

[21] = 250 g ai/ha, rating scale 0-100

COc1c(Cl)cc(F)c(-n2c(=O)cc(C(F)(F)F)n(C)c2=O)c1NC(=O)OCc1cccc(F)c1 [4-44]
80: Pre-emerge Herbicidal Activity ECHCG ([5]; 63 g ai/ha) | phytotoxicity rating RICE (crop damage) ([8]; 250 g ai/ha)
100: Pre-emerge Herbicidal Activity SETVI ([1]; 63 g ai/ha) | Pre-emerge Herbicidal Activity SETVI ([1]; 250 g ai/ha) | Pre-emerge Herbicidal Activity CASOB ([2]; 63 g ai/ha) | Pre-emerge Herbicidal Activity CASOB ([2]; 250 g ai/ha) | Pre-emerge Herbicidal Activity CHEAL ([3]; 63 g ai/ha) | Pre-emerge Herbicidal Activity CHEAL ([3]; 250 g ai/ha) | Pre-emerge Herbicidal Activity IPOHE ([4]; 63 g ai/ha) | Pre-emerge Herbicidal Activity IPOHE ([4]; 250 g ai/ha) | Pre-emerge Herbicidal Activity ABUTH ([6]; 63 g ai/ha) | Pre-emerge Herbicidal Activity ABUTH ([6]; 250 g ai/ha) | Pre-emerge Herbicidal Activity DIGSA ([7]; 63 g ai/ha) | Pre-emerge Herbicidal Activity DIGSA ([7]; 250 g ai/ha) | phytotoxicity rating CORN (crop damage) ([9]; 250 g ai/ha) | phytotoxicity rating CASOB ([13]; 63 g ai/ha) | phytotoxicity rating CASOB ([13]; 250 g ai/ha) | phytotoxicity rating AMARE ([14]; 63 g ai/ha, rating scale 0-100 (0 no damage, 100 complete death)) | phytotoxicity rating AMARE [14, 21] | phytotoxicity rating CHEAL ([15]; 63 g ai/ha) | phytotoxicity rating CHEAL ([15]; 250 g ai/ha) | phytotoxicity rating IPOHE ([16]; 63 g ai/ha) | phytotoxicity rating IPOHE ([16]; 250 g ai/ha) | phytotoxicity rating ABUTH ([18]; 63 g ai/ha) | phytotoxicity rating ABUTH ([18]; 250 g ai/ha) | Pre-emerge Herbicidal Activity AMARE ([20]; 63 g ai/ha) | Pre-emerge Herbicidal Activity AMARE ([20]; 250 g ai/ha)
95: Pre-emerge Herbicidal Activity ECHCG ([5]; 250 g ai/ha) | Pre-emerge Herbicidal Activity CORN ([11]; 250 g ai/ha) | phytotoxicity rating SETVI ([12]; 63 g ai/ha) | phytotoxicity rating DIGSA ([19]; 250 g ai/ha)
65: Pre-emerge Herbicidal Activity RICE ([10]; 250 g ai/ha)
70: phytotoxicity rating RICE (crop damage) ([8]; 63 g ai/ha) | Pre-emerge Herbicidal Activity RICE ([10]; 63 g ai/ha) | Pre-emerge Herbicidal Activity CORN ([11]; 63 g ai/ha) | phytotoxicity rating ECHCG ([17]; 63 g ai/ha) | phytotoxicity rating DIGSA ([19]; 63 g ai/ha)
90: phytotoxicity rating CORN (crop damage) ([9]; 63 g ai/ha) | phytotoxicity rating SETVI ([12]; 250 g ai/ha) | phytotoxicity rating ECHCG ([17]; 250 g ai/ha)

COc1c(Cl)cc(F)c(-n2c(=O)cc(C(F)(F)F)n(N)c2=O)c1NC(=O)c1ccc2ccccc2c1 [2-184]
30: phytotoxicity rating ECHCG ([5]; 63 g ai/ha) | phytotoxicity rating RICE (crop damage) ([10]; 63 g ai/ha) | phytotoxicity rating CORN (crop damage) ([11]; 250 g ai/ha)
80: phytotoxicity rating ECHCG ([5]; 250 g ai/ha) | SETVI phytotoxicity rating ([12]; 250 g ai/ha)
65: RICE phytotoxicity rating (crop damage) ([8]; 250 g ai/ha)
100: phytotoxicity rating SETVI ([1]; 250 g ai/ha) | phytotoxicity rating CHEAL ([3]; 63 g ai/ha) | phytotoxicity rating CHEAL ([3]; 250 g ai/ha) | phytotoxicity rating IPOHE ([4]; 250 g ai/ha) | phytotoxicity rating ABUTH ([6]; 63 g ai/ha) | phytotoxicity rating ABUTH ([6]; 250 g ai/ha) | phytotoxicity rating DIGSA ([7]; 250 g ai/ha) | CASOB phytotoxicity rating ([13]; 63 g ai/ha) | CASOB phytotoxicity rating ([13]; 250 g ai/ha) | AMARE phytotoxicity rating ([14]; 63 g ai/ha, rating scale 0-100) | AMARE phytotoxicity rating [14, 21] | CHEAL phytotoxicity rating ([15]; 63 g ai/ha) | CHEAL phytotoxicity rating ([15]; 250 g ai/ha) | IPOHE phytotoxicity rating ([16]; 63 g ai/ha) | IPOHE phytotoxicity rating ([16]; 250 g ai/ha) | ABUTH phytotoxicity rating ([18]; 63 g ai/ha) | ABUTH phytotoxicity rating ([18]; 250 g ai/ha) | phytotoxicity rating AMARE ([20]; 63 g ai/ha) | phytotoxicity rating AMARE ([20]; 250 g ai/ha)
90: DIGSA phytotoxicity rating ([19]; 250 g ai/ha)
50: phytotoxicity rating SETVI ([1]; 63 g ai/ha) | phytotoxicity rating CASOB ([2]; 63 g ai/ha) | phytotoxicity rating IPOHE ([4]; 63 g ai/ha) | ECHCG phytotoxicity rating ([17]; 250 g ai/ha)
20: DIGSA phytotoxicity rating ([19]; 63 g ai/ha)
75: phytotoxicity rating CASOB ([2]; 250 g ai/ha) | CORN phytotoxicity rating (crop damage) ([9]; 250 g ai/ha)
40: RICE phytotoxicity rating (crop damage) ([8]; 63 g ai/ha) | ECHCG phytotoxicity rating ([17]; 63 g ai/ha)
60: phytotoxicity rating DIGSA ([7]; 63 g ai/ha) | phytotoxicity rating RICE (crop damage) ([10]; 250 g ai/ha) | SETVI phytotoxicity rating ([12]; 63 g ai/ha)
10: CORN phytotoxicity rating (crop damage) ([9]; 63 g ai/ha)
0: phytotoxicity rating CORN (crop damage) ([11]; 63 g ai/ha)
